Measured values as given in ChEMBL document CHEMBL3885881, “DrugMatrix”.

Species: Rattus norvegicus
Test: DrugMatrix - Regimen: Daily Repeat
Format: toxicity, organism-based, Sprague-Dawley
Set-up: regimen Daily Repeat, gender Male, age 6-8 weeks
Details: in vivo, po, route oral GAVAGE, vehicle .5 % CMC; for ABSOLUTE BASOPHIL / ABSOLUTE EOSINOPHIL / ABSOLUTE LYMPHOCYTE / ABSOLUTE MONOCYTE / ABSOLUTE SEGMENTED NEUTROPHIL / BASOPHIL / EOSINOPHIL / ERYTHROCYTE COUNT / HEMATOCRIT / HEMOGLOBIN / LEUKOCYTE COUNT / LYMPHOCYTE / MEAN CORPUSCULAR HEMOGLOBIN / MEAN CORPUSCULAR HEMOGLOBIN CONCENTRATION / MEAN CORPUSCULAR VOLUME / MONOCYTE / NEUTROPHIL / NUCLEATED RED BLOOD CELLS / PLATELET COUNT: tissue Blood; for ALANINE AMINOTRANSFERASE / ALBUMIN / ALKALINE PHOSPHATASE / ASPARTATE AMINOTRANSFERASE / BLOOD UREA NITROGEN / CARBON DIOXIDE / CHLORIDE / CHOLESTEROL / CREATINE PHOSPHOKINASE / CREATININE / GLUCOSE / LACTATE DEHYDROGENASE / LIPASE / PHOSPHORUS / POTASSIUM / SODIUM / TOTAL BILIRUBIN / TOTAL PROTEIN / URIC ACID: tissue Plasma
[1] = 0 mg/kg, 72 h, dose level Control, time 3 day
[2] = 0 mg/kg, 120 h, dose level Control, time 5 day
[3] = 50 mg/kg, 72 h, dose level Low, time 3 day

CNC(=C[N+](=O)[O-])NCCSCc1ccc(CN(C)C)o1 [RANITIDINE]
ABSOLUTE BASOPHIL [1]: 0 CELLS/uL | ABSOLUTE EOSINOPHIL [1]: 0 CELLS/uL | ABSOLUTE LYMPHOCYTE [1]: 12269.67 CELLS/uL | ABSOLUTE MONOCYTE [1]: 160.33 CELLS/uL | ABSOLUTE SEGMENTED NEUTROPHIL [1]: 970 CELLS/uL | BASOPHIL [1]: 0% | EOSINOPHIL [1]: 0% | ERYTHROCYTE COUNT [1]: 5.76 x10E6/uL | HEMATOCRIT [1]: 36.57% | HEMOGLOBIN [1]: 14.22 G/DL | LEUKOCYTE COUNT [1]: 13.4 x10E3/uL | LYMPHOCYTE [1]: 91.67% | MEAN CORPUSCULAR HEMOGLOBIN [1]: 24.67 pg | MEAN CORPUSCULAR HEMOGLOBIN CONCENTRATION [1]: 38.85 G/DL | MEAN CORPUSCULAR VOLUME [1]: 63.52 fL | MONOCYTE [1]: 1.17% | NEUTROPHIL [1]: 7.17% | NUCLEATED RED BLOOD CELLS [1]: 0.33 /100WBC | PLATELET COUNT [1]: 1250.83 x10E3/uL | ALANINE AMINOTRANSFERASE [1]: 49.17 u/L | ALBUMIN [1]: 4.33 G/DL | ALKALINE PHOSPHATASE [1]: 378.5 u/L | ASPARTATE AMINOTRANSFERASE [1]: 82.17 u/L | BLOOD UREA NITROGEN [1]: 15 mg/dL | CARBON DIOXIDE [1]: 34.33 mmol/L | CHLORIDE [1]: 99.17 MEQ/L | CHOLESTEROL [1]: 71.17 mg/dL | CREATINE PHOSPHOKINASE [1]: 258.67 u/L | CREATININE [1]: 0.18 mg/dL | GLUCOSE [1]: 142.67 mg/dL | LACTATE DEHYDROGENASE [1]: 154.33 u/L | LIPASE [1]: 9 u/L | PHOSPHORUS [1]: 11.67 mg/dL | POTASSIUM [1]: 7.13 MEQ/L | SODIUM [1]: 142.22 MEQ/L | TOTAL BILIRUBIN [1]: 0.18 mg/dL | TOTAL PROTEIN [1]: 5.77 G/DL | URIC ACID [1]: 1.55 mg/dL | ABSOLUTE BASOPHIL [2]: 0 CELLS/uL | ABSOLUTE EOSINOPHIL [2]: 23.33 CELLS/uL | ABSOLUTE LYMPHOCYTE [2]: 14943.67 CELLS/uL | ABSOLUTE MONOCYTE [2]: 32 CELLS/uL | ABSOLUTE SEGMENTED NEUTROPHIL [2]: 1084.33 CELLS/uL | BASOPHIL [2]: 0% | EOSINOPHIL [2]: 0.17% | ERYTHROCYTE COUNT [2]: 5.71 x10E6/uL | HEMATOCRIT [2]: 35.28% | HEMOGLOBIN [2]: 14.27 G/DL | LEUKOCYTE COUNT [2]: 16.08 x10E3/uL | LYMPHOCYTE [2]: 93% | MEAN CORPUSCULAR HEMOGLOBIN [2]: 25.02 pg | MEAN CORPUSCULAR HEMOGLOBIN CONCENTRATION [2]: 40.43 G/DL | MEAN CORPUSCULAR VOLUME [2]: 61.82 fL | MONOCYTE [2]: 0.17% | NEUTROPHIL [2]: 6.67% | NUCLEATED RED BLOOD CELLS [2]: 0.33 /100WBC | PLATELET COUNT [2]: 1274 x10E3/uL | ALANINE AMINOTRANSFERASE [2]: 54.17 u/L | ALBUMIN [2]: 4.22 G/DL | ALKALINE PHOSPHATASE [2]: 373.17 u/L | ASPARTATE AMINOTRANSFERASE [2]: 81.83 u/L | BLOOD UREA NITROGEN [2]: 16.67 mg/dL | CARBON DIOXIDE [2]: 30.33 mmol/L | CHLORIDE [2]: 99 MEQ/L | CHOLESTEROL [2]: 71 mg/dL | CREATINE PHOSPHOKINASE [2]: 273.5 u/L | CREATININE [2]: 0.22 mg/dL | GLUCOSE [2]: 141.83 mg/dL | LACTATE DEHYDROGENASE [2]: 153.67 u/L | LIPASE [2]: 10.33 u/L | PHOSPHORUS [2]: 11.38 mg/dL | POTASSIUM [2]: 7.08 MEQ/L | SODIUM [2]: 142.75 MEQ/L | TOTAL BILIRUBIN [2]: 0.18 mg/dL | TOTAL PROTEIN [2]: 6.1 G/DL | URIC ACID [2]: 1.67 mg/dL | ABSOLUTE BASOPHIL [3]: 0 CELLS/uL | ABSOLUTE EOSINOPHIL [3]: 82.33 CELLS/uL | ABSOLUTE LYMPHOCYTE [3]: 12453.33 CELLS/uL | ABSOLUTE MONOCYTE [3]: 303 CELLS/uL | ABSOLUTE SEGMENTED NEUTROPHIL [3]: 1061.33 CELLS/uL | BASOPHIL [3]: 0% | EOSINOPHIL [3]: 0.67% | ERYTHROCYTE COUNT [3]: 5.58 x10E6/uL | HEMATOCRIT [3]: 36.1% | HEMOGLOBIN [3]: 14.47 G/DL | LEUKOCYTE COUNT [3]: 13.9 x10E3/uL | LYMPHOCYTE [3]: 89.67% | MEAN CORPUSCULAR HEMOGLOBIN [3]: 25.9 pg | MEAN CORPUSCULAR HEMOGLOBIN CONCENTRATION [3]: 40.1 G/DL | MEAN CORPUSCULAR VOLUME [3]: 64.73 fL | MONOCYTE [3]: 2% | NEUTROPHIL [3]: 7.67% | NUCLEATED RED BLOOD CELLS [3]: 0.33 /100WBC | PLATELET COUNT [3]: 1180.67 x10E3/uL | ALANINE AMINOTRANSFERASE [3]: 50.67 u/L | ALBUMIN [3]: 4.17 G/DL | ALKALINE PHOSPHATASE [3]: 358 u/L | ASPARTATE AMINOTRANSFERASE [3]: 90.67 u/L | BLOOD UREA NITROGEN [3]: 16.33 mg/dL | CARBON DIOXIDE [3]: 27.33 mmol/L | CHLORIDE [3]: 101.33 MEQ/L | CHOLESTEROL [3]: 81.67 mg/dL | CREATINE PHOSPHOKINASE [3]: 304 u/L | CREATININE [3]: 0.2 mg/dL | GLUCOSE [3]: 157.33 mg/dL | LACTATE DEHYDROGENASE [3]: 312 u/L | LIPASE [3]: 10 u/L | PHOSPHORUS [3]: 15.03 mg/dL | POTASSIUM [3]: 7.11 MEQ/L | SODIUM [3]: 147.4 MEQ/L | TOTAL BILIRUBIN [3]: 0.2 mg/dL | TOTAL PROTEIN [3]: 5.83 G/DL | URIC ACID [3]: 2.3 mg/dL
